The target of data set [1] is T1, α1A-adrenergic (Homo sapiens, UniProt P35348).
T1 sequence (P35348 1-466): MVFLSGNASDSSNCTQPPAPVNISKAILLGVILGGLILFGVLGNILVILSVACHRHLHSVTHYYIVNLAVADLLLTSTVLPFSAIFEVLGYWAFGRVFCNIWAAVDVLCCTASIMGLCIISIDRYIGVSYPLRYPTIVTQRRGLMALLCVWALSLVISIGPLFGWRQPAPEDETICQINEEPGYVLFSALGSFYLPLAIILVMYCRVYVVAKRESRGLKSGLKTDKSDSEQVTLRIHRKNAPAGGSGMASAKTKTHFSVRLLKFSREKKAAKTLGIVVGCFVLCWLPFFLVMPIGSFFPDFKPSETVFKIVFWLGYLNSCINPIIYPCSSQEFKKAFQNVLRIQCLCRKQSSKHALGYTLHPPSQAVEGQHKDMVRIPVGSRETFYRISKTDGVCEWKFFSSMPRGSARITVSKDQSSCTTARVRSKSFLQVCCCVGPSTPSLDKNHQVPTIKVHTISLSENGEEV
The note with it: background statement; cited from earlier work.

The test system of data set [2] is patients with negative symptoms of schizophrenia. Kind of data set: Study #2 (MIN-101C07): safety and tolerability (TEAEs, QT). It counts as in vivo, human. The settings on record: for Incidence of TEAEs: DB period. From the text: (§1) Study #2 (also referred to as “MIN101C07”) was a Phase 3, randomized, DB, placebo-controlled, parallel-group 12-week study to evaluate the efficacy and safety of Roluperidone in patients ≥18 years to ≤55 years with negative symptoms of schizophrenia, followed by a 40-week OL extension. The study consisted of a pretreatment screening period of up to 28 days (including an antipsychotic medication washout period), a 12-week, DB, placebo-controlled period, and a 40-week OL period. Eligible patients (with moderate to severe negative symptoms of schizophrenia and stable positive symptoms but without severe symptoms of suspiciousness, agitation, hostility, uncooperativeness, or poor impulse control) were randomized 1:1:1 to receive Roluperidone 32 mg QD, Roluperidone 64 mg QD (GR01/B formulation, see U.S. Pat. No. 11,464,744), or placebo, orally, for 12 weeks. […] During the 40-week OL treatment extension, patients who were initially randomized to Roluperidone 32 mg or 64 mg continued treatment with the same dose, while patients who were initially randomized to placebo crossed over to Roluperidone 32 mg or 64 mg in a 1:1 ratio.
The incidence of TEAEs was slightly higher in the Roluperidone groups than in the placebo group during the DB period (42% in the 32 mg Roluperidone group, 37% in the 64 mg Roluperidone group, and 33% in the placebo group). The majority of TEAEs reported were in the System Organ Class (SOC) psychiatric disorders. The most commonly reported TEAEs were insomnia, schizophrenia, anxiety, agitation, and headache. […] In total, 6 patients met stopping criteria due to QT prolongations, and 4 of these 6 patients were discontinued from the study due to such prolongations. The remaining 2 patients were discontinued for other reasons prior to confirming their QT prolongations.

For data set [3], the target named is serotoninergic 5-HT2A (Homo sapiens, UniProt P28223). The settings on record: background statement; cited from earlier work.
For data set [4], the system named is patients with negative symptoms of schizophrenia. Kind of data set: Study #1 (MIN-101C03): safety and tolerability (TEAEs, QTcF). The note with it: for Patients with QTcF prolongation >500 msec and change from Baseline in QTcF >60 msec: DB period. It counts as in vivo, human. The text has this: Phase 2b Study #1 (also referred to herein as “MIN-101C03”) was a Phase 2b, double-blind (“DB”), placebo-controlled, randomized, multicenter 12-week study to evaluate the efficacy, safety, and tolerability of Roluperidone in patients ≥18 years to ≤60 years with negative symptoms of schizophrenia, followed by a 24-week open-label (“OL”) extension. The primary objective of the study was to evaluate the efficacy of Roluperidone compared to placebo in improving the negative symptoms of schizophrenia as measured by the change from Baseline in the PANSS negative factor score of the PSM (“PANSS PSM”) over 12 weeks of treatment.
The study consisted of a pretreatment screening period of up to 28 days (including washout), a 12-week, DB, placebo-controlled period, and a 24-week OL period. Eligible patients (who were symptomatically stable for at least 3 months and had scores of at least 20 on the PANSS negative subscale score) were randomized in a 1:1:1 ratio to receive oral Roluperidone (a modified-release, “MR”, formulation) 32 mg QD, Roluperidone 64 mg QD, or placebo for 12 weeks. […] During the 24-week, OL treatment extension period, patients who were initially randomized to Roluperidone 32 mg or 64 mg continued on the same dose, while patients who were initially randomized to placebo crossed over to Roluperidone 32 mg or 64 mg in a 1:1 ratio.
Clinically significant QTcF prolongation >500 msec and change from Baseline in QTcF>60 msec were reported in 2 patients of the 64 mg Roluperidone group, and in no patients in the 32 mg Roluperidone group or in the placebo group during the DB period of the study. The mean changes across all vital sign parameters were small from Baseline to the respective study visits in the DB period of the study.

For data set [5] the test system is unchanged. The data set is described as follows: Study #2 (MIN-101C07): CGI-S and CGI-I. The data set is classed as in vivo, human. The settings on record: Week 12 DB, ITT. How it is done:
The CGI-S is a clinician-rated scale that is designed to rate the severity of the patient's illness at the time of assessment, including knowledge of the patient's history, psychosocial circumstances, symptoms, behavior, and the impact of the symptoms on the patient's ability to function relative to the clinician's past experience with patients who have the same diagnosis and similar improvement with treatment. Considering total clinical experience, a patient is assessed on severity of mental illness at the time of rating, where 1=normal (not at all ill); 2=borderline mentally ill; 3=mildly ill; 4=moderately ill; 5=markedly ill; 6=severely ill; or 7=extremely ill.
The CGI-S and CGI-I were assessed at the timepoints described in Table 7. The CGI-S and CGI-I were exploratory endpoints in Studies MIN-101C03 and MIN-101C07.
as §1

The test system of data set [6] is histaminergic receptors. The note with it: background statement; cited from earlier work.

serotoninergic 5-HT2A, sequence (P28223 whole entry): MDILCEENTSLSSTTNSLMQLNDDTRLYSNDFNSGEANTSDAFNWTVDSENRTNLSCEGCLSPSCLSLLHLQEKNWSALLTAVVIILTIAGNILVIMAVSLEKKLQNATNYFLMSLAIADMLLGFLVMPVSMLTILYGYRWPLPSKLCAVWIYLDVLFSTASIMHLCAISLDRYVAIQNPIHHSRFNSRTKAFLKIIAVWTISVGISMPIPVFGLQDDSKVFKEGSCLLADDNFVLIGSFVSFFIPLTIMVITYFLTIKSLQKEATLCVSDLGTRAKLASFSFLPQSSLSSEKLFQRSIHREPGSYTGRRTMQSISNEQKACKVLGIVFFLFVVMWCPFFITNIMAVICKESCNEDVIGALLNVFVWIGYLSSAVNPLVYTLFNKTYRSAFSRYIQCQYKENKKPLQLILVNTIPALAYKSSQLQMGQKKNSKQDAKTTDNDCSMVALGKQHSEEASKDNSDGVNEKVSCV

As for “1H-Isoindol-1-one,2-[ [1-[2-(4-fluorophenyl)-2-oxoethyl]-4-piperidinyl]methyl]-2,3-dihydro-, hydrochloride, hydrate (1:1:2) [Roluperidone]”, the Antagonistic activity entry in data set [1] is given as “antagonistic activities”. Moreover, in data set [2], the “Change in safety laboratory parameters, including prolactin” value is reported as “no significant change”; the “Change in vital signs, including weight and waist circumference” value was “no significant change”. Moreover, the “Incidence of TEAEs” value in data set [2] (32 mg) came to 42%. The “Incidence of TEAEs” value in data set [2] (64 mg) is recorded as 37%. Also, the Tolerability entry in data set [2] (32 and 64 mg) was “generally well tolerated”. Moreover, the “Patients who met stopping criteria due to QT prolongations” value in data set [2] (in total) was determined as 6 patients. Besides, the QT prolongation entry in data set [2] (majority of clinically significant prolongations with 64 mg) is recorded as “Dose-related QT prolongation was observed”. For the same substance, the “Patients discontinued from the study due to QT prolongations” value in data set [2] (of the 6 meeting stopping criteria) came out at 4 patients. Moreover, the Antagonistic activity result in data set [3] is listed as “antagonistic activities”. For the same substance, the “Patients with QTcF prolongation >500 msec and change from Baseline in QTcF >60 msec” value in data set [4] (32 mg) is given as “no patients”. The “Patients with QTcF prolongation >500 msec and change from Baseline in QTcF >60 msec” value in data set [4] (64 mg) was 2 patients. Moreover, the “Tolerability (TEAEs, SAEs)” value in data set [4] (32 and 64 mg, up to 36 weeks of treatment) is recorded as “generally well tolerated”. In addition, in data set [4] (Roluperidone groups), the “QTcF prolongation >450 msec and QTcF increases relative to baseline of ≥30 msec” value was “dose-dependent manner”. In data set [5] (32 mg QD), the “Change from Baseline LS Mean: Clinical Global Impression of Severity” value was −0.4; the “Clinical Global Impression of Improvement, LS Mean (observed data, MMRM)” value is given as 3.4; the “Effect Size (Cohen's d) vs Placebo: Clinical Global Impression of Improvement” value was −0.12; the “Effect Size (Cohen's d) vs Placebo: Clinical Global Impression of Severity” value is 0.12. For the same substance, in data set [5] (64 mg QD), the “Change from Baseline LS Mean: Clinical Global Impression of Severity” value was −0.5; the “Clinical Global Impression of Improvement, LS Mean (observed data, MMRM)” value is reported as 3.3; the “Effect Size (Cohen's d) vs Placebo: Clinical Global Impression of Improvement” value was 0.02; the “Effect Size (Cohen's d) vs Placebo: Clinical Global Impression of Severity” value was found to be 0.24. For the same substance, the Affinity entry in data set [6] is “very low or no affinity”.

The values are drawn from patent publication US20230255953A1, “USE OF ROLUPERIDONE IN PREVENTING RELAPSE IN SCHIZOPHRENIA PATIENTS” (Minerva Neurosciences, Inc., priority 2022, published 2023).
